In article PMC6768028, “Synthesis, SAR and in vitro therapeutic potentials of thiazolidine-2,4-diones” (Chemistry Central Journal, 2018):
≈ marks a conversion by molar mass, not a printed value. Like-named read-outs stand apart in the source and are kept apart here.

Key:
[1] = tested on: Bacillus subtilis; assay: Antimicrobial activity, tube dilution method (MIC); assay type: cell-based; conditions: 24 h
Experimental: (§1) The in vitro antimicrobial activity of synthesized compounds was done by tube dilution method against Gram-positive bacteria: Staphylococcus aureus, Bacillus subtilis, Gram-negative bacteria: Escherichia coli, Klebsiella pneumonia, Salmonella typhi and fungal: Candida albicans and Aspergillus niger strains using cefadroxil and fluconazole as standard. Dilutions of test and standard compounds were prepared in double strength nutrient broth for bacterial strains and Sabouraud dextrose broth for fungal strains.

[2] = tested on: Escherichia coli; assay: Antimicrobial activity, tube dilution method (MIC); assay type: cell-based; conditions: 24 h, read-out: Minimum inhibitory concentration, E. coli, tube dilution, 37 ± 1 °C, 24 h
Experimental: as §1

[3] = tested on: Klebsiella pneumonia; assay: Antimicrobial activity, tube dilution method (MIC); assay type: cell-based; conditions: Klebsiella pneumoniae, 24 h
Experimental: as §1

[4] = tested on: Salmonella typhi; assay: Antimicrobial activity, tube dilution method (MIC); assay type: cell-based; conditions: Salmonella enterica, TYPHI, 24 h, read-out: Minimum inhibitory concentration, S. typhi
Experimental: as §1

[5] = tested on: Staphylococcus aureus; assay: Antimicrobial activity, tube dilution method (MIC); assay type: cell-based; conditions: 24 h, read-out: Minimum inhibitory concentration, S. aureus, tube dilution, 37 ± 1 °C, 24 h
Experimental: as §1

[6] = tested on: Aspergillus niger; assay: Antifungal activity, tube dilution method (MIC); assay type: cell-based; conditions: 168 h
Experimental: as §1

[7] = tested on: Candida albicans; assay: Antifungal activity, tube dilution method (MIC); assay type: cell-based; conditions: 48 h
Experimental: as §1

[8] = tested on: α-amylase enzyme (diastase); assay: Antidiabetic activity: α-amylase inhibitory activity using diastase, colorimetric method; assay type: biochemical; conditions: for IC50 (antidiabetic activity, α-amylase): calculated via graph of % inhibition
Experimental: All the synthesized compounds were evaluated against α-amylase inhibitory activity by using diastase based on colorimetric method. 0.25 g of soluble potato starch was dissolved in 50 ml of 20 mM phosphate buffer by heating for 15 min. 1 mg diastase (amylase enzyme) was mixed in 100 ml of 20 mM phosphate buffer (pH 6.9) to obtain the enzyme solution. Different concentrations of all the synthesized derivatives were prepared by dissolving them in DMSO. […] 1 ml of enzyme solution was mixed with 1 ml of each synthesized derivatives and incubated for 10 min at 25 °C. Then 1 ml of this mixture was mixed with 1 ml of soluble potato starch solution in a tube and incubated for 10 min at 25 °C. Then tubes were closed after adding 1 ml of color reagent and placed into water bath for 15 min at 85 °C. The reaction mixture was removed from water bath after 15 min. After cooling, the reaction mixture was diluted with 9 ml of distilled water and the absorbance was taken at 540 nm in UV spectrophotometer. Blank solution was prepared by replacing the enzyme solution with buffer solution and absorbance was taken. Measurement of control was performed in identical manner by replacing the synthesized derivatives in 1 ml of DMSO.
Percentage inhibition of α-amylase enzyme was calculated by using following formula:1 %Inhibition=ABlank-ASample/ABlank×100

[9] = Antioxidant activity: free radical scavenging method by DPPH assay; conditions: for % inhibition (DPPH), 25 μg/ml / % inhibition (DPPH), 50 μg/ml / % inhibition (DPPH), 75 μg/ml / % inhibition (DPPH), 100 μg/ml: 30 min, 517 nm; for IC50 (antioxidant activity, DPPH): calculated via graph of % inhibition
Experimental: The antioxidant activity of the newly synthesized compounds were evaluated spectrophotometrically using free radical scavenging method by DPPH (2,2-diphenyl-1-picrylhydrazyl) assay. The DPPH is a stable free radical with maximal absorption at 517 nm and is reduced to a corresponding hydrazine when it reacting with hydrogen donors. […] DPPH solution (3 μg/ml) was prepared in methanol and DPPH (in 1:1) solution was used for blank reference. Four dilutions of different concentrations (25, 50, 75 and 100 μg/ml) of each synthesized compound and standard (ascorbic acid) were prepared in the methanol and 1 ml of each concentration was added to 1 ml of DPPH solution. The solution mixture was shaken vigorously and kept in dark place for 30 min at room temperature and absorbance was measured by UV at 517 nm. Percentage inhibition of Free radical DPPH was calculated as follows:1 %Inhibition=ABlank-ASample/ABlank×100 where, ABlank: absorbance of the blank reaction, ASample: absorbance of the test compound.

[10] = read-out: Minimum inhibitory concentration, B. subtilis, tube dilution, 37 ± 1 °C, 24 h
[11] = read-out: Minimum inhibitory concentration, K. pneumonia, tube dilution, 37 ± 1 °C, 24 h
[12] = read-out: Minimum inhibitory concentration, A. niger, tube dilution, 25 ± 1 °C, 7 days
[13] = read-out: Minimum inhibitory concentration, C. albicans, tube dilution, 37 ± 1 °C, 48 h
[14] = tube dilution, 37 ± 1 °C, read-out: Minimum inhibitory concentration, B. subtilis
[15] = tube dilution, 37 ± 1 °C, read-out: Minimum inhibitory concentration, K. pneumonia

| SMILES | MIC [1, 10] [mM] | MIC [2] [mM] | MIC [3, 11] [mM] | MIC [4] [mM] | MIC [5] [mM] | MIC [6, 12] [mM] | MIC [7, 13] [mM] | % inhibition (α-amylase), 25 μg/ml [8] [%] | % inhibition (α-amylase), 50 μg/ml [8] [%] | % inhibition (α-amylase), 75 μg/ml [8] [%] | % inhibition (α-amylase), 100 μg/ml [8] [%] | IC50 (antidiabetic activity, α-amylase) [8] [µg/mL] | % inhibition (DPPH), 25 μg/ml [9] [%] | % inhibition (DPPH), 50 μg/ml [9] [%] | % inhibition (DPPH), 75 μg/ml [9] [%] | % inhibition (DPPH), 100 μg/ml [9] [%] | IC50 (antioxidant activity, DPPH) [9] [µg/mL] | further results |
| --- | --- | --- | --- | --- | --- | --- | --- | --- | --- | --- | --- | --- | --- | --- | --- | --- | --- | --- |
| O=C1NC(=O)C(=Cc2ccccc2Cl)S1 [Compound 13, 5-(2-Chlorobenzylidene)thiazolidine-2,4-dione] | 10.4 (≈ 2490 µg/mL) | 5.21 (≈ 1250 µg/mL) | 10.4 (≈ 2490 µg/mL) | 5.21 (≈ 1250 µg/mL) | 5.21 (≈ 1250 µg/mL) | 2.6 (≈ 623 µg/mL) | 5.21 (≈ 1250 µg/mL) | 25.74 | 43.89 | 56.76 | 92.72 | 48.45 (≈ 202 µM) | 24.45 | 44.76 | 71.51 | 77.84 | 39.41 (≈ 164 µM) |  |
| O=C1NC(=O)C(=Cc2ccc([N+](=O)[O-])cc2)S1 [Compound 1, 5-(4-Nitrobenzylidene)thiazolidine-2,4-dione] | 9.9 (≈ 2480 µg/mL) | 4.9 (≈ 1230 µg/mL) | 9.9 (≈ 2480 µg/mL) | 4.9 (≈ 1230 µg/mL) | 4.9 (≈ 1230 µg/mL) | 4.9 (≈ 1230 µg/mL) | 4.9 (≈ 1230 µg/mL) | 22.65 | 35.79 | 55.52 | 88.68 | 54.35 (≈ 217 µM) | 32.64 | 40.22 | 73.41 | 84.81 | 36.35 (≈ 145 µM) |  |
| C[C@H]1O[C@H](O[C@H]2[C@H](O)[C@@H](O)[C@@H](O[C@H]3[C@H](O)[C@@H](O)C(O)O[C@@H]3CO)O[C@@H]2CO)[C@H](O)[C@@H](O)[C@@H]1N[C@H]1C=C(CO)[C@@H](O)[C@H](O)[C@H]1O (stereo partly shown) [Acarabose, Acarbose, reference compound] |  |  |  |  |  |  |  | 37.35 | 53.45 | 73.25 | 88.57 |  |  |  |  |  |  |  |
| O=C1NC(=O)C(=Cc2ccccc2[N+](=O)[O-])S1 [Compound 4, 5-(2-Nitrobenzylidene)thiazolidine-2,4-dione] | 9.9 (≈ 2480 µg/mL) |  | 9.9 (≈ 2480 µg/mL) | 4.99 (≈ 1250 µg/mL) | 4.99 (≈ 1250 µg/mL) | 4.99 (≈ 1250 µg/mL) | 4.99 (≈ 1250 µg/mL) | 31.26 | 40.65 | 63.93 | 92.61 | 43.63 (≈ 174 µM) | 29.45 | 45.75 | 79.74 | 83.10 | 36.17 (≈ 145 µM) |  |
| O=C1NC(=O)C(=C/C=C/c2ccccc2)S1 [Compound 20, 5-((E)-3-Phenylallylidene)thiazolidine-2,4-dione] | 5.4 (≈ 1250 µg/mL) | 5.4 (≈ 1250 µg/mL) | 10.8 (≈ 2500 µg/mL) | 5.4 (≈ 1250 µg/mL) | 5.4 (≈ 1250 µg/mL) | 5.4 (≈ 1250 µg/mL) | 5.4 (≈ 1250 µg/mL) | 34.73 | 45.98 | 68.34 | 88.45 | 31.62 (≈ 137 µM) | 25.64 | 46.93 | 69.55 | 87.97 | 43.89 (≈ 190 µM) |  |
| COc1cc(C=C2SC(=O)NC2=O)ccc1O [Compound 18, 5-(4-Hydroxy-3-methoxybenzylidene)thiazolidine-2,4-dione] | 4.9 (≈ 1230 µg/mL) | 4.9 (≈ 1230 µg/mL) | 9.9 (≈ 2490 µg/mL) | 4.9 (≈ 1230 µg/mL) | 4.9 (≈ 1230 µg/mL) | 4.9 (≈ 1230 µg/mL) | 4.9 (≈ 1230 µg/mL) | 18.64 | 45.85 | 65.11 | 95.98 | 56.39 (≈ 224 µM) | 36.94 | 43.52 | 60.12 | 93.03 | 33.51 (≈ 133 µM) |  |
| CCOc1cc(C=C2SC(=O)NC2=O)ccc1O [Compound 11, 5-(4-Hydroxy-3-ethoxybenzylidene)thiazolidine-2,4-dione] | 9.4 (≈ 2490 µg/mL) | 4.7 (≈ 1250 µg/mL) | 4.7 (≈ 1250 µg/mL) | 4.7 (≈ 1250 µg/mL) | 4.7 (≈ 1250 µg/mL) | 4.7 (≈ 1250 µg/mL) | 4.7 (≈ 1250 µg/mL) | 18.49 | 47.87 | 59.74 | 89.71 | 52.69 (≈ 199 µM) | 18.64 | 25.71 | 72.78 | 93.59 | 64.03 (≈ 241 µM) |  |
| O=C1O[C@H]([C@@H](O)CO)C(O)=C1O [Ascorbic acid, ascorbic acid, reference compound] |  |  |  |  |  |  |  |  |  |  |  |  | 38.99 | 55.78 | 72.51 | 93.15 | 21.64 (≈ 123 µM) |  |
| O=C1NC(=O)C(=Cc2ccccc2O)S1 [Compound 17, 5-(2-Hydroxybenzylidene)thiazolidine-2,4-dione] |  | 5.65 (≈ 1250 µg/mL) |  | 5.65 (≈ 1250 µg/mL) | 5.65 (≈ 1250 µg/mL) | 5.65 (≈ 1250 µg/mL) | 5.65 (≈ 1250 µg/mL) | 23.67 | 48.56 | 65.46 | 93.17 | 48.48 (≈ 219 µM) | 32.78 | 40.24 | 69.55 | 89.87 | 40.06 (≈ 181 µM) | MIC [1, 14]: 11.3 mM (≈ 2500 µg/mL); MIC [3, 15]: 11.3 mM (≈ 2500 µg/mL) |
| OC(Cn1cncn1)(Cn1cncn1)c1ccc(F)cc1F [Fluconazole, fluconazole, reference compound] |  |  |  |  |  |  |  |  |  |  |  |  |  |  |  |  |  | MIC ([6]; tube dilution, 25 ± 1 °C, 7 days, read-out: Minimum inhibitory concentration, A. niger): 4.08 mM (≈ 1250 µg/mL); MIC ([7]; tube dilution, 37 ± 1 °C, read-out: Minimum inhibitory concentration, C. albicans): 4.08 mM (≈ 1250 µg/mL) |
| COc1ccc(C=C2SC(=O)NC2=O)cc1 [Compound 12, 5-(4-methoxybenzylidene)thiazolidine-2,4-dione] | 10.6 (≈ 2490 µg/mL) | 5.31 (≈ 1250 µg/mL) | 10.6 (≈ 2490 µg/mL) | 5.31 (≈ 1250 µg/mL) | 10.6 (≈ 2490 µg/mL) | 5.31 (≈ 1250 µg/mL) | 5.31 (≈ 1250 µg/mL) | 27.77 | 53.23 | 62.27 | 79.43 | 27.63 (≈ 117 µM) | 20.67 | 42.75 | 77.84 | 90.50 | 53.27 (≈ 226 µM) |  |
| CC1=C(C(=O)O)N2C(=O)[C@@H](NC(=O)[C@H](N)c3ccc(O)cc3)[C@H]2SC1 [Cefadroxil, cefadroxil, reference compound] |  | 1.71 (≈ 621 µg/mL) |  | 1.71 (≈ 621 µg/mL) | 1.71 (≈ 621 µg/mL) |  |  |  |  |  |  |  |  |  |  |  |  | MIC [1, 14]: 3.4 mM (≈ 1240 µg/mL); MIC [3, 15]: 3.4 mM (≈ 1240 µg/mL) |
